Assay type in all cases: in vivo
Test [1] deals with ICR mice. The test can be described thus: Test Example 6: serum glucose after intravenous saccharide with simultaneous oral glucose loading. How it is done: Groups of male 9-week-old ICR mice (Japan SLC, Inc.) each consisting of 7 mice were fed CE-2 (Clea Japan, Inc.) for one week, so as to accustom the animals to the environment. Then, the mice were fasted for 18 hours.
An aqueous 10% solution of 2′-FL or NeuAc was intravenously administered to the mice to 500 mg (saccharide)/kg body weight, while an aqueous 40% glucose solution was orally administered simultaneously to 2 g (glucose)/kg body weight, to the mice. To the control group, physiological saline was administered intravenously, while glucose was orally administered simultaneously to 2 g/kg body weight. Zero minute and 30 minutes after glucose loading, blood was taken from a tail vein. […] Blood was centrifuged (4° C., 10000 rpm, 10 minutes), to obtain serum.
Furthermore, the glucose concentration in the serum recovered was also assayed. The glucose concentration was assayed, using Glucose CII-TEST WAKO (WAKO Pure Chemical Industries, Ltd.). 2 μl of the recovered serum was placed in a 96-well plate, followed by addition of 200 μl of the chromogenic solution attached to the kit, for incubation at 37° C. for 10 minutes. After incubation, the absorbance at 490 nm was assayed with a plate reader. Herein, a standard curve was prepared by using aqueous 500 mg/dl glucose solution as the standard solution to dilute the standard solution appropriately for the same reaction as for the serum, and plotting the relation between the concentration and the absorbance (490 nm). Based on the prepared standard curve and the absorbance from the reaction with the serum, the glucose concentration in the serum was determined.

The subject of test [2] is ICR mice. The test can be described thus: Test Example 8: serum insulin in glucose tolerance test after single oral 2′-FL dose. How it is done:
Groups of male 8-week-old ICR mice (Japan SLC, Inc.) each consisting of 6 mice were fed CE-2 (Clea Japan, Inc.) for one week, so as to accustom the animals to the environment.
Then, the mice accustomed were fasted for 18 hours. An aqueous 2% solution of 2′-FL was orally administered to the mice to 100 mg (2′-FL)/kg body weight, while 0.9% saline was administered orally to the control group. Two hours after the 2′-FL dosing, an aqueous 40% glucose solution was orally administered to 2 g (glucose)/kg body weight to the mice, for glucose tolerance test. […] Blood glucose was assayed with a simple-type blood glucose assay apparatus Medisafe Reader GR-101 (Terumo, Co., Ltd.), while the serum was collected.
Insulin in the serum recovered was assayed by enzyme immunoassay using Morinaga ultra-sensitive rat insulin assay kit (Morinaga Biochemical Research Institute, Co., Ltd.) described below. 15 μl of the serum was divided in the wells of an antibody-immobilized plate, where 85 μl of the diluent attached to the kit was divided therein, for reaction at 4° C. for 2 hours. […] The absorbance of each well at 450 nm (principal wave length) and 655 nm (sub wave length) was measured with BioRad Model 3550 microplate reader (BioRad Laboratories, Inc.). […] Based on the prepared standard curve, the serum insulin concentration corresponding to the absorbance during the reaction with the serum was determined.

In test [3] the test system is C57BL/KsJ-db/db Jcl mice (model animals of Type II diabetes mellitus). The test can be described thus: Test Example 1: serum insulin in glucose tolerance test after 7-day oral dosing. On the procedure:
Male 9-week-old C57BL/KsJ-db/db Jcl (abbreviated as “db/db” hereinafter) mice (Clea Japan, Inc.), which are model animals of Type II diabetes mellitus, were divided in groups each consisting of 6 mice, and fed a commercially available feed CE-2 (Clea Japan, Inc.) for one week, so as to accustom the animals to the environment.
After acclimation, an aqueous 10% solution of 2′-fucosyllactose (sometimes abbreviated as “2′-FL” hereinafter) was orally administered to the mice at 200 mg (2′-FL)/kg body weight in the morning and at 300 mg (2′-FL) /kg body weight in the evening. The same volume of Saline was administered to the control group. The aqueous 2′-FL solution and the saline were both dosed daily to the mice for 7 days.
During the dosing period, CE-2 was-given together with drinking water ad libitum.
After 18-hour starvation from the final dosing on day 7, an aqueous 40% glucose solution was orally administered to 2 g (glucose)/kg body weight to the mice, to perform glucose tolerance test. Zero minute and 30 minutes after glucose loading, blood was taken from tail vein. […] Blood was centrifuged (4° C., 10000 rpm, 10 minutes), to obtain serum.
Insulin in the serum recovered was assayed by enzyme immunoassay using Lebis Insulin kit (for rats-T) (Shibayagi, Co., Ltd.) as follows. The kit reacts with insulin in the sera of both rats and mice.
First, the serum recovered was diluted with the buffer attached to the kit to 5 fold. 10 μl of the diluted serum was taken and divided in the wells of the antibody-immobilized plate into which 100 μl of a biotin-bound anti-insulin antibody was added, for reaction at ambient temperature for 2 hours. After the reaction, the plate was rinsed four times with the rinse solution attached to the kit. After rinsing, 100 μl of the peroxidase-avidin bound material was divided in the wells, for reaction at ambient temperature for 30 minutes. After reaction, the plate was rinsed four times with the rinse solution. After rinsing, 100 μl of the chromogenic solution was divided in the wells, for chromogenic reaction for 30 minutes, followed by addition of 100 μl of the reaction termination solution to each well. The absorbance of the reaction solution in the wells at 450 nm was read with a plate reader.
Herein, a standard curve was prepared by using the 200 ng/ml standard insulin solution (rat) attached to the kit as a standard solution to dilute the standard solution appropriately with the buffer solution attached to the kit for the same reaction as for the serum, and plotting the relation between the concentration and the absorbance (450 nm).
Based on the prepared standard curve and the absorbance from the reaction with the serum, the insulin concentration in the serum was determined.

In the case of 2′-fucosyllactose [2′-FL], the “Serum glucose concentration after glucose loading, 30 minutes” value in test [1] (ICR mice fasted 18 hours, 500 mg/kg intravenous with simultaneous glucose 2 g/kg oral, 30 minutes, mean ± SD) came to 331.4 ± 68.6 mg/dL. Besides, in test [1] (ICR mice fasted 18 hours, 500 mg/kg intravenous with simultaneous glucose 2 g/kg oral, 120 minutes, mean ± SD), the “Serum glucose concentration after glucose loading, 120 minutes” value worked out at 169.2 ± 29.5 mg/dL. For the same substance, in test [1] (ICR mice fasted 18 hours, 500 mg/kg intravenous with simultaneous glucose 2 g/kg oral, zero minute, mean ± SD), the “Serum glucose concentration after glucose loading, Zero minute” value amounted to 102.4 ± 23.3 mg/dL. The “increase of the serum glucose concentration compared with the control group (in words)” value in test [1] (ICR mice, intravenous dosing) was “suppressed”. Besides, in test [2] (ICR mice fasted 18 hours, 100 mg/kg single oral dose two hours before glucose 2 g/kg oral, 60 minutes, mean ± SD), the “Serum insulin concentration after glucose loading” value is 82.6 ± 91.7 pg/mL. Moreover, the “serum insulin concentration after glucose loading compared with the control group (in words)” value in test [2] (ICR mice, single oral dosing 120 minutes before glucose dosing) is “increased”. In addition, the “insulin concentration after glucose loading compared with the control group (in words)” value in test [3] (continuous daily oral dosing) is recorded as “increased”. Also, the “Serum insulin concentration after glucose loading, Zero minute” value in test [3] (oral 200 mg/kg morning + 300 mg/kg evening, 7 days, 18-hour starvation, glucose 2 g/kg oral, zero minute, mean ± SD) is 6.7 ± 3.3 ng/mL. Besides, the “Serum insulin concentration after glucose loading, 30 minutes” value in test [3] (oral 200 + 300 mg/kg daily, 7 days, glucose 2 g/kg oral, 30 minutes, mean ± SD) came out at 8.3 ± 3.9 ng/mL. For the same substance, the “Serum insulin concentration after glucose loading, 120 minutes” value in test [3] (oral 200 + 300 mg/kg daily, 7 days, glucose 2 g/kg oral, 120 minutes, mean ± SD) came out at 26.1 ± 12.8 ng/mL.
